# Where “and” joins values, the source holds several entries; their conditions need not be identical. Equal values may be shown once.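 Assay format: 96-well plates, 48-hour exposure. Abbreviation: GI50, concentration required for 50% inhibition of growth. TGI: concentration producing complete growth inhibition.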
# Assays:
# Assay in all cases: NCI tumour cell line growth inhibition, 48 h
# [1] = system: HCT-116 colon
# [2] = system: HCT-15 colon
# [3] = system: KM12 colon
# [4] = system: LOX IMVI melanoma
# [5] = system: M14 melanoma
# [6] = system: MDA-MB-435
# [7] = system: NCI-H23 lung
# [8] = system: NCI/ADR-RES ovarian
# [9] = system: U251 CNS
# [10] = system: UO-31 renal
SMILES,GI50 [1],TGI [1],GI50 [2],TGI [2],GI50 [3],TGI [3],GI50 [4],TGI [4],GI50 [5],TGI [5],GI50 [6],TGI [6],GI50 [7],TGI [7],GI50 [8],TGI [8],GI50 [9],TGI [9],GI50 [10],TGI [10]
COc1ccc(-c2nc3ccc(-c4nc5ccc(N6CCN(c7ccccc7)CC6)cc5[nH]4)cc3[nH]2)cc1OC,0.281 µM,1.11 µM,5.13 µM,> 100 µM,1.84 µM,4.01 µM,0.357 µM,1.34 µM,1.69 µM,6.32 µM,1.73 µM,3.32 µM,1.77 µM,3.66 µM,> 100 µM,> 100 µM,1.2 µM,3.02 µM,51.4 µM,> 100 µM
Cc1ccc(NC(=O)CC2CC2)cc1-c1ccc(C(=O)NCC2CC2)cc1,> 25 µM,> 25 µM,> 25 µM,> 25 µM,> 25 µM,> 25 µM,> 25 µM,> 25 µM,> 25 µM,> 25 µM,> 19.5 µM,> 25 µM,> 25 µM,> 25 µM,> 25 µM,> 25 µM,> 25 µM,> 25 µM,> 25 µM,> 25 µM
COc1cc(F)ccc1-c1ncnc(Nc2cccc(CS(C)(=N)=O)c2)n1 (stereo not given),0.421 µM,> 100 µM,0.495 µM,> 100 µM,0.561 µM,> 100 µM,0.373 µM,> 100 µM,2.25 µM,> 100 µM,1.55 µM,> 100 µM,0.679 µM,7.14 µM,3.19 µM,> 100 µM,0.779 µM,> 100 µM,0.528 µM,> 100 µM
O=C1Nc2ccccc2/C1=N\[O-].O=C1Nc2ccccc2/C1=N\[O-].[Cu+2],> 100 µM,> 100 µM,> 100 µM,> 100 µM,> 100 µM,> 100 µM,> 100 µM,> 100 µM,> 100 µM,> 100 µM,> 100 µM,> 100 µM,> 100 µM,> 100 µM,> 100 µM,> 100 µM,> 100 µM,> 100 µM,> 100 µM,> 100 µM
CNCC#Cc1c(F)ccc2c1/C(=C/c1[nH]ccc1OC)C(=O)N2,0.0827 µM,3.1 µM,0.0866 µM,2.78 µM,0.0565 µM,2.41 µM,0.142 µM,2.18 µM,0.181 µM,1.48 µM,0.156 µM,1.41 µM,0.283 µM,1.26 µM,0.363 µM,3.27 µM,0.121 µM,2.75 µM,0.13 µM,2.6 µM
Cc1c2c(C#N)nccc2c(C)c2c1c1ccccc1n2Cc1ccccc1,,> 100 µM,,> 100 µM,,> 100 µM,,> 100 µM,,> 100 µM,,> 100 µM,,> 100 µM,,> 100 µM,,> 100 µM,,> 100 µM
C#C[C@]1(O)CCC2C3CCc4cc(O)ccc4C3CC[C@@]21C (stereo not given in full),4.68 µM,20 µM,4.9 µM,73 µM,3.14 µM,13.9 µM,5.27 µM,18.8 µM,3.87 µM,13.5 µM,0.628 µM,9.59 µM,4.7 µM,25.7 µM,3.14 µM,25.4 µM,4.09 µM,17.5 µM,6.81 µM,28.8 µM
COc1c(OC[C@H](O)CN2CCOCC2)ccc2c3n(c(=NC(=O)c4cccnc4C)nc12)CCN3,24.2 µM,> 50 µM,1.62 µM,> 50 µM,40.7 µM,> 50 µM,1.57 µM,> 50 µM,27.8 µM,> 50 µM,14.1 µM,> 50 µM,> 50 µM,> 50 µM,> 50 µM,> 50 µM,2.58 µM,> 50 µM,0.263 µM,> 50 µM
CO/N=C(\COc1ccc2c(c1)oc(=O)c1cc(OC)ccc12)c1ccc(OC)cc1,> 100 µM,> 100 µM,> 100 µM,> 100 µM,> 100 µM,> 100 µM,> 100 µM,> 100 µM,> 100 µM,> 100 µM,> 100 µM,> 100 µM,> 100 µM,> 100 µM,> 100 µM,> 100 µM,> 100 µM,> 100 µM,> 100 µM,> 100 µM
COc1cc(NCc2ccc3nc(N)nc(N)c3c2C)cc(OC)c1OC (tested in a mixture with another compound),0.000185 µM,33 µM,0.000451 µM,51.7 µM,,46.6 µM,0.000242 µM,38.3 µM,0.0222 µM and 0.025 µM,,0.000388 µM,50.1 µM,,,,229 µM,0.00227 µM and 0.016 µM,88.5 µM and 48.7 µM,,
CCOC(=O)Nc1ccc(C)c(NC(=O)OCC)c1,,> 100 µM,,> 100 µM,,> 100 µM,,> 100 µM,,> 100 µM,,> 100 µM,,> 100 µM,,> 100 µM,,> 100 µM,,> 100 µM
O=C(N[C@@H](c1ccc(Cl)c(Cl)c1)C1CNC1)c1ccc2cnccc2c1,0.33 µM,10.4 µM,1.6 µM,12 µM,0.314 µM,4.44 µM,0.716 µM,3.71 µM,0.343 µM,8.4 µM,0.216 µM,3.81 µM,0.336 µM,10.8 µM,12.1 µM,27.1 µM,0.475 µM,4.26 µM,0.543 µM,10 µM
CN(C)C(n1cc2c(c1)-c1ccc(Cl)cc1C(c1ccccc1F)=NC2)n1cc2c(c1)-c1ccc(Cl)cc1C(c1ccccc1F)=NC2,,> 100 µM,,> 100 µM,,,,47.9 µM,,> 100 µM,,> 100 µM,,24.4 µM,,> 100 µM,,> 100 µM,,> 100 µM
COc1cccc2c1C(=O)c1c(O)c3c(c(O)c1C2=O)C[C@](O)(C(=O)CO)C[C@H]3O[C@@H]1C[C@@H](NC(=O)CCCCCN(C)C2(c3ccc(F)cc3)CC3CCC2C3)[C@H](O)[C@@H](C)O1 (stereo not given in full),0.729 µM,1.51 µM,2.19 µM,9.11 µM,,,5.17 µM,13.1 µM,3.48 µM,14.3 µM,8.67 µM,19.4 µM,3.49 µM,10.7 µM,13 µM,50 µM,0.739 µM,1.49 µM,6.1 µM,12.5 µM

# Reference: PubChem BioAssay (NCI)
